The text below walks through data of ChEMBL document CHEMBL5385962, “Beyond inhibition against the PD-1/PD-L1 pathway: development of PD-L1 inhibitors targeting internalization and degradation of PD-L1” (RSC Med Chem, 2024).

The subject of one assay is A-375. As to the kind of experiment: Antiproliferative activity against human A-375 cells assessed as reduction in cell viability. Type of assay: functional, cell-based.
Another assay concerns B16-F10. As to the kind of experiment: Antiproliferative activity against mouse B16-F10 cells assessed as reduction in cell viability. Type of assay: functional, cell-based.
In the next assay the test system is BGC-823. As to the kind of experiment: PD-L1 degradation in human PD-L1 […] BGC-823 cells assessed as PD-L1 degradation rate at 10 to 20 uM incubated for 5 days by flow cytometry relative to control. The settings on record: dose 10-20 µM, time 5 day.
A short description of assay [1]: Antitumor activity against humanized mouse MC38-hPD-L1 cells implanted in hPD-1 knockin C57BL/6 mouse assessed as reduction in tumor cell proliferation at 10 mg/kg, ip administered for 7 days starting from day 7 post tumor implantation by flow cytometry analysis relative to control. Set-up: scale not given: the % may be the effect or the level left. Conditions: time 7 day.

The target in assay [2] is Programmed cell death 1 ligand 1 (Mus musculus) (UniProt Q9EP73). As to the kind of experiment: Induction of PD-L1 degradation in mouse B16-F10 cells.
Assay [3] has the same target. As to the kind of experiment: Induction of PD-L1 degradation in mouse CT26 cells.
Assay [4] deals with MC-38. Description: Antitumor activity against mouse MC38 cells xenografted in BALB/c nude mouse assessed as inhibition of tumor growth at 20 mg/kg, po BID administered twice daily for 14 days relative to control. Type of assay: functional. Set-up: scale not given: the % may be the effect or the level left. The settings on record: time 14 day.
Assay [5] has as its system MC-38. As to the kind of experiment: Antitumor activity against mouse MC38 cells xenografted in BALB/c nude mouse assessed as inhibition of tumor growth at 200 mg/kg, po BID administered twice daily for 14 days relative to control. Also on record: scale not given: the % may be the effect or the level left. Type of assay: functional. The settings on record: time 14 day.

Assay [6] relates to MC-38. Description: Antitumor activity against mouse MC38 cells xenografted in BALB/c nude mouse assessed as inhibition of tumor growth at 2 mg/kg, po BID administered twice daily for 14 days relative to control. The class given is functional. Set-up: scale not given: the % may be the effect or the level left. The settings on record: time 14 day.
Assay [7] has as its target Programmed cell death protein 1/Programmed cell death 1 ligand 1 (Homo sapiens, UniProt Q9NZQ7). As to the kind of experiment: Inhibition of PD-1/PD-L1 interaction (unknown origin) incubated for 24 hrs by HTRF assay. The class given is protein-complex assay. For orientation: Time-resolved FRET reads energy transfer from a long-lived donor to a nearby acceptor.

Chain of Programmed cell death protein 1/Programmed cell death 1 ligand 1 (Q15116 whole entry): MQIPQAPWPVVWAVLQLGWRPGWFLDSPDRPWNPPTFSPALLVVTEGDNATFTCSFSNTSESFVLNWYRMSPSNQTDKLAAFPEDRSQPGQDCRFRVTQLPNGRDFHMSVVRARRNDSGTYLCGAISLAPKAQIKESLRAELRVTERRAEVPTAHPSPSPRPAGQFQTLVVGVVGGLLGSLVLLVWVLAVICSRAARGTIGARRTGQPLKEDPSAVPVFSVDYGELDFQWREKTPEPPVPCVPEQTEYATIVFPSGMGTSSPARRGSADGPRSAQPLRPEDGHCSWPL
Chain of Programmed cell death protein 1/Programmed cell death 1 ligand 1 (Q9NZQ7 whole entry): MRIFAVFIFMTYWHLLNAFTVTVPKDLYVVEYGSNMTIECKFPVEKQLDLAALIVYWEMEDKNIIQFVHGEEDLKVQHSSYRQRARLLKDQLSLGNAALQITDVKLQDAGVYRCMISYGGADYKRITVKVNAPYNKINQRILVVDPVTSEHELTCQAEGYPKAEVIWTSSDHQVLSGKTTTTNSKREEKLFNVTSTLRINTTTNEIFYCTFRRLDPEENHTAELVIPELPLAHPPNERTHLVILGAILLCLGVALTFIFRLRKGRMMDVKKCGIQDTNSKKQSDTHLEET

Usually IC50 stands for the concentration that inhibits the measured activity by half. For `COc1cc(OCc2cccc(-c3ccccc3)c2C)cc(OC)c1CNCCNC(=O)c1cn(CCOCCOCCOCCNc2cccc3c2C(=O)N(C2CCC(=O)NC2=O)C3=O)nn1` (stereo not given), the concentration for half-maximal inhibition (IC50) in the assay with A-375 is 8.07 µM; with B16-F10, 14 µM.
Regarding `Cc1nc(C)c(C(=O)OCc2ccccc2)c(CC(C)(C)C)c1C(=O)OCc1ccccc1`, the PD-L1 degradation rate in the assay on BGC-823 turned out to be 66.99%.
As for `Cc1c(NC(=O)c2ccc(CNCCO)cn2)cccc1-c1cccc(NC(=O)c2ccc(CNCCO)cn2)c1C`, in assay [1], the Activity came out at 60.4%.
The term DC50 denotes the concentration giving 50% degradation. For `Cc1c(COc2cc(OCc3cccc(C#N)c3)c(CN3C[C@H](O)C[C@@H]3C(=O)O)cc2Cl)cccc1-c1ccc2c(c1)OCCO2`, the 50% degradation concentration (DC50) in assay [2] is 0.39 µM; in assay [3], 0.35 µM.
As for `Cc1c(Nc2nccc3cc(CN4CC[C@@H](O)C4)cnc23)cccc1-c1cccc(-c2nc3cc(CN4CC[C@@H](C(=O)O)C4)cc(C#N)c3o2)c1C`, the figures for the Activity with MC-38 [4], in the assay on MC-38 [5] and with MC-38 [6] were 66%, 69% and 32%, respectively.
Turning to `Cc1c(NC(=O)c2nc3c(n2C)CCN(C[C@H](C)O)C3)cccc1-c1cccc(NC(=O)c2nc3c(n2C)CCN(C)C3)c1Cl`, in assay [7], the 50% inhibitory concentration (IC50) is under 0.001 µM.
